ChEMBL document CHEMBL3612057, “Discovery of indolizines containing triazine moiety as new leads for the development of antitumoral agents targeting mitotic events” (2015)
Calls of active or inactive are those of the source. No cut-off for these calls is given here.

Species on record: Ovis aries
Assay: Inhibition of sheep tubulin polymerization at 100 uM by fluorescence assay

SMILES	inhibition
COc1nc(OC)nc(-c2cc(C(=O)c3ccc(Br)cc3)n3cc(C)cc(C)c23)n1	inactive
COc1nc(OC)nc(-c2cc(C(=O)c3ccc(C#N)cc3)n3ccccc23)n1	inactive
O=C(c1ccc(Br)cc1)c1cc(-c2nc(=O)[nH]c(=O)[nH]2)c2ccccn12	inactive

Further lines, results first:

inhibition	SMILES
inactive	COc1nc(OC)nc(-c2cc(C(=O)c3ccc(-c4ccccc4)cc3)n3ccccc23)n1
inactive	COc1nc(OC)nc(-c2cc(C(=O)c3ccc(F)cc3)n3ccccc23)n1
